In patent publication US7820148B2, “Use of a complex nutritional base in cosmetics, in particular for the hair” (priority 2004, dated 2010):
Values joined by “and” are separate entries in the source; they are usually repeats but may differ in a detail not shown here. Identical values can stand only once.

Test system: scalp fragments
Assay: Example 4: cell proliferation (anti-Ki67 immunohistochemistry) in root and outer epithelial sheath of scalp fragments kept in survival
Format: cell-based, human
Conditions: N = 6, 48 hours
Procedure: The aim of the present study is to identify the effectiveness of a CNB according to the invention and according to Table 2, on the stimulation of the root. The cell proliferation, using the anti-Ki67 antibody, was evaluated in the matrix zone of the root (growth zone of the stem), but also in the outer epithelial sheath of the follicle.
Scalp fragments from 6 different donors (cervico-facial lift of a non-alopecia subject) were deposited in inserts, themselves positioned on culture wells.
Containing no preservative, antibiotics were added to all these tested media (fungizone, gentamycin). They were added daily to the bottom of the wells, a passage taking place by slow diffusion between the two compartments via a porous membrane (12 μm).
The scalp fragments were kept in survival in a stove at 37° C. and in an air/5% CO2 atmosphere for 48 hours.
The scalp fragments were fixed in Bouin's liquid and set in paraffin.
The immunohistochemical evaluation of proliferation was carried out in the root and in the outer epithelial sheath surrounding the hair. This outer sheath is histologically considered as the prolongation of the surface epidermis.
Epithelial proliferation was analyzed by immunohistochemistry using an anti-Ki67 antibody (for labelling cells M, S, G1 and G2 of the cell cycle). Immunodetection was carried out using an indirect immunoperoxidase technique in 3 layers, amplified by (DAKO kit) and developed in AEC.
The number of labelled cells of the outer epithelial sheath was counted between the origin of the sebaceous glands and the beginning of the root zone. Furthermore, the labelled matrix cells in the roots were also counted. The percentage of cells undergoing proliferation was thereby calculated compared to the unlabelled cells.
Statistical analysis was carried out by the Student's test of the reduced deviation or paired samples test. The significant threshold was set at 5%.

## Nc1cc(N2CCCCC2)nc(N)[n+]1[O-] [Minoxidil]
Minoxidil 0.01% in PBS
  % of labelled cells (anti-Ki67) in the outer epithelial sheath of the follicles: 10.2% and 10.2 ± 5%
  % of labelled matrix cells (anti-Ki67) in the root of the hair follicle: 4.2% and 4.2 ± 2.45%
Minoxidil 2% in PBS
  % of labelled cells (anti-Ki67) in the outer epithelial sheath of the follicles: 17.6% and 17.6 ± 7 %
  % of labelled matrix cells (anti-Ki67) in the root of the hair follicle: 11.60% and 11.6 ± 8.7%
